Laboratory results: DBAASP
≈ marks a conversion by molar mass, not a printed value.

Key:
Assay in all cases: ≥ marks a high value that may be exact or a test limit, other limits are often not marked, values filed in µg/mL are converted to µM
[1] = tested on: Aspergillus fumigatus IP1025-70
[2] = tested on: Aeromonas caviae IP67-16T
[3] = tested on: Nocardia brasiliensis IP16-80
[4] = tested on: Staphylococcus aureus IP76-25
[5] = tested on: Aspergillus niger IP218-53
[6] = tested on: Saccharomyces cerevisiae IP118079
[7] = tested on: Candida albicans IP884-65
[8] = tested on: Enterococcus faecalis IP103214
[9] = tested on: Trichophyton simii IP1063-74
[10] = tested on: Cryptococcus neoformans IP960-67
Escherichia coli IP76-24 = tested on: Escherichia coli IP76-24
[11] = tested on: Pseudomonas aeruginosa IFO 12582
[12] = tested on: Staphylococcus aureus IFO 12732
[13] = tested on: Bacillus subtilis IFO 3134
[14] = tested on: Escherichia coli IFO 12734
Nocardia asteroides = tested on: Nocardia asteroides
[15] = tested on: Enterococcus faecalis 981
[16] = tested on: Staphylococcus aureus ATCC 25923
Escherichia coli UB1005 = tested on: Escherichia coli UB1005
[17] = tested on: Aeromonas salmonicida 97-4
[18] = tested on: Aeromonas salmonicida 99-1
[19] = tested on: Escherichia coli CGSC 4908
[20] = tested on: Staphylococcus aureus C623
Candida albicans C627 = tested on: Candida albicans C627
[21] = tested on: Staphylococcus epidermidis C621
[22] = tested on: Salmonella enterica subsp. enterica serovar Typhimurium ATCC 14028s
Escherichia coli DC2 = tested on: Escherichia coli DC2
[23] = tested on: Salmonella enterica serovar typhimurium MS7953s
[24] = tested on: Pseudomonas aeruginosa Z61
[25] = tested on: Pseudomonas aeruginosa K799
Listeria monocytogenes = tested on: Listeria monocytogenes
[26] = tested on: Staphylococcus epidermidis
[27] = tested on: Enterococcus faecalis ATCC 29212

CC[C@H](C)[C@H](NC(=O)CNC(=O)[C@H](CCCCN)NC(=O)[C@H](CC(C)C)NC(=O)[C@H](CCSC)NC(=O)[C@H](CC(N)=O)NC(=O)[C@H](CCCCN)NC(=O)[C@H](Cc1c[nH]c2ccccc12)NC(=O)[C@H](CC(C)C)NC(=O)[C@H](C)N)C(=O)NCC(=O)N[C@@H](CCCCN)C(=O)N[C@@H](CC(C)C)C(=O)N[C@@H](C)C(=O)NCC(=O)N[C@@H](CCCCN)C(N)=O [ALWKNMLKGIGKLAGK]
MIC [1]: 8 µM (≈ 13.8 µg/mL) | MIC [2]: 2 µM (≈ 3.45 µg/mL) | MIC [3]: ≥ 70 µM | MIC [4]: ≥ 60 µM | MIC [5]: 15 µM (≈ 25.9 µg/mL) | MIC [6]: 4 µM (≈ 6.91 µg/mL) | MIC [7]: 8 µM (≈ 13.8 µg/mL) | MIC [8]: 2 µM (≈ 3.45 µg/mL) | MIC [9]: 8 µM (≈ 13.8 µg/mL) | MIC [10]: 2 µM (≈ 3.45 µg/mL) | MIC (Escherichia coli IP76-24): 2 µM (≈ 3.45 µg/mL)

CC[C@H](C)[C@H](NC(=O)[C@H](C)NC(=O)[C@@H]1CCCN1C(=O)[C@@H](NC(=O)[C@@H](NC(=O)[C@H](Cc1cnc[nH]1)NC(=O)[C@H](C)NC(=O)[C@H](C)NC(=O)[C@@H](NC(=O)[C@H](CCCCN)NC(=O)[C@H](C)NC(=O)[C@H](CC(C)C)NC(=O)[C@@H](NC(=O)CNC(=O)[C@H](Cc1ccccc1)NC(=O)CN)C(C)C)C(C)C)C(C)C)C(C)C)C(=O)N[C@@H](C)C(=O)N[C@@H](CCC(=O)O)C(=O)N[C@@H](Cc1cnc[nH]1)C(=O)N[C@@H](Cc1ccccc1)C(N)=O [GFGVLAKVAAHVVPAIAEHF]
MIC [11]: ≥ 64 µM | MIC [12]: ≥ 64 µM | MIC [13]: ≥ 64 µM | MIC [14]: ≥ 64 µM

CC[C@H](C)[C@H](NC(=O)[C@H](C)NC(=O)[C@@H]1CCCN1C(=O)[C@@H](NC(=O)[C@@H](NC(=O)[C@H](Cc1cnc[nH]1)NC(=O)[C@H](C)NC(=O)[C@H](C)NC(=O)[C@@H](NC(=O)[C@H](CCCCN)NC(=O)[C@H](C)NC(=O)[C@H](CC(C)C)NC(=O)[C@@H](NC(=O)CNC(=O)[C@H](Cc1ccccc1)NC(=O)[C@H](CC(C)C)NC(=O)CN)C(C)C)C(C)C)C(C)C)C(C)C)C(=O)N[C@@H](C)C(=O)N[C@@H](CCC(=O)O)C(=O)N[C@@H](Cc1cnc[nH]1)C(N)=O [GLFGVLAKVAAHVVPAIAEH]
MIC [11]: ≥ 64 µM | MIC [12]: ≥ 64 µM | MIC [13]: ≥ 64 µM | MIC [14]: ≥ 64 µM

CC[C@H](C)[C@H](NC(=O)[C@H](CCCCN)NC(=O)[C@@H]1CCCN1C(=O)[C@H](CC(C)C)NC(=O)[C@H](CC(C)C)NC(=O)[C@H](CO)NC(=O)CNC(=O)[C@H](CC(C)C)NC(=O)[C@H](C)NC(=O)CNC(=O)[C@H](CC(C)C)NC(=O)[C@H](CC(C)C)NC(=O)[C@H](Cc1ccccc1)NC(=O)[C@@H]1CCCN1C(=O)[C@H](Cc1ccccc1)NC(=O)[C@@H](N)Cc1ccccc1)C(=O)N[C@@H](Cc1ccccc1)C(N)=O [FFPFLLGALGSLLPKIF]
MIC (Nocardia asteroides): 6.3 µM (≈ 11.8 µg/mL) | MIC [15]: 25 µM (≈ 47 µg/mL) | MIC [16]: 12.5 µM (≈ 23.5 µg/mL)

CC[C@H](C)[C@H](NC(=O)[C@H](CCCNC(=N)N)NC(=O)[C@H](CCCNC(=N)N)NC(=O)[C@H](CC(C)C)NC(=O)[C@@H](N)Cc1c[nH]c2ccccc12)C(=O)NCC(=O)N[C@@H](CCCCN)C(=O)NCC(=O)N[C@H](C(=O)N[C@@H](CCCCN)C(=O)N[C@H](C(=O)N[C@H](C(=O)NCC(=O)NCC(=O)N[C@@H](C)C(=O)N[C@@H](C)C(=O)N[C@@H](CC(C)C)C(=O)N[C@@H](CC(=O)O)C(=O)N[C@@H](Cc1cnc[nH]1)C(=O)N[C@@H](CC(C)C)C(N)=O)[C@@H](C)CC)[C@@H](C)CC)C(C)C [WLRRIGKGVKIIGGAALDHL]
MIC (Escherichia coli UB1005): 29.4 µM (≈ 64 µg/mL) | MIC [17]: ≥ 58.9 µM | MIC [18]: ≥ 58.9 µM | MIC [19]: 29.4 µM (≈ 64 µg/mL) | MIC [20]: 29.4 µM (≈ 64 µg/mL) | MIC (Candida albicans C627): 29.4 µM (≈ 64 µg/mL) | MIC [21]: 29.4 µM (≈ 64 µg/mL) | MIC [22]: 29.4 µM (≈ 64 µg/mL) | MIC (Escherichia coli DC2): 29.4 µM (≈ 64 µg/mL) | MIC [23]: 29.4 µM (≈ 64 µg/mL) | MIC [24]: 14.7 µM (≈ 32 µg/mL) | MIC [25]: 29.4 µM (≈ 64 µg/mL)

CC[C@H](C)[C@@H]1NC(=O)[C@H](C(C)C)NC(=O)[C@H](C(C)C)NC(=O)[C@H]([C@@H](C)CC)NC(=O)[C@@H]2CCCN2C(=O)[C@@H](NC(=O)[C@H](CCCN=C(N)N)NC(=O)[C@@H](N)CCCN=C(N)N)CSSC[C@@H](C(=O)N[C@@H](CCCN=C(N)N)C(=O)O)NC(=O)[C@H](C(C)C)NC(=O)[C@H](CCCN=C(N)N)NC1=O [RRCPIVVIRVCR]
MIC (Escherichia coli UB1005): 2.72 µM (≈ 3.99 µg/mL) | MIC (Listeria monocytogenes): 10.9 µM (≈ 16 µg/mL) | MIC [26]: 21.8 µM (≈ 32 µg/mL) | MIC [27]: > 21.8 µM | MIC [22]: 10.9 µM (≈ 16 µg/mL) | MIC [25]: 21.8 µM (≈ 32 µg/mL) | MIC [16]: 21.8 µM (≈ 32 µg/mL)

CC[C@H](C)[C@H](NC(=O)CNC(=O)[C@H](CCCCN)NC(=O)[C@H](CC(C)C)NC(=O)[C@H](CCSC)NC(=O)[C@H](CC(N)=O)NC(=O)[C@H](CCCCN)NC(=O)[C@H](Cc1c[nH]c2ccccc12)NC(=O)[C@H](CC(C)C)NC(=O)[C@H](C)N)C(=O)NCC(=O)N[C@@H](CCCCN)C(=O)N[C@@H](CC(C)C)C(=O)N[C@@H](C)C(=O)NCC(=O)N[C@@H](CCCCN)C(=O)N[C@@H](C)C(=O)N[C@@H](C)C(=O)N[C@@H](CC(C)C)C(=O)NCC(N)=O [ALWKNMLKGIGKLAGKAALG]
MIC [1]: 15 µM (≈ 30.6 µg/mL) | MIC [2]: 2 µM (≈ 4.08 µg/mL) | MIC [3]: 30 µM (≈ 61.2 µg/mL) | MIC [4]: 8 µM (≈ 16.3 µg/mL) | MIC [5]: 15 µM (≈ 30.6 µg/mL) | MIC [6]: 4 µM (≈ 8.16 µg/mL) | MIC [7]: 4 µM (≈ 8.16 µg/mL) | MIC [8]: 2 µM (≈ 4.08 µg/mL) | MIC [9]: 15 µM (≈ 30.6 µg/mL) | MIC [10]: 1 µM (≈ 2.04 µg/mL) | MIC (Escherichia coli IP76-24): 2 µM (≈ 4.08 µg/mL)

CC[C@H](C)[C@H](NC(=O)[C@H](Cc1cnc[nH]1)NC(=O)[C@H](CCCCN)NC(=O)[C@H](C)NC(=O)[C@H](C)NC(=O)[C@H](Cc1cnc[nH]1)NC(=O)[C@H](CCCNC(=N)N)NC(=O)CNC(=O)[C@H](Cc1cnc[nH]1)NC(=O)[C@H](CCCCN)NC(=O)[C@H](Cc1ccccc1)NC(=O)[C@@H](NC(=O)[C@H](CO)NC(=O)CNC(=O)[C@H](Cc1c[nH]c2ccccc12)NC(=O)CN)[C@@H](C)CC)C(=O)NCC(=O)N[C@@H](Cc1cnc[nH]1)C(=O)N[C@@H](C)C(=O)N[C@@H](C)C(=O)N[C@H](C(=O)N[C@@H](CC(N)=O)C(=O)N[C@@H](Cc1cnc[nH]1)C(=O)N[C@@H](Cc1ccc(O)cc1)C(=O)N[C@@H](CC(C)C)C(C)=O)C(C)C [GWGSIFKHGRHAAKHIGHAAVNHYL]
MIC (Escherichia coli UB1005): 1.45 µM (≈ 4 µg/mL) | MIC [17]: 1.45 µM (≈ 4 µg/mL) | MIC [18]: 1.45 µM (≈ 4 µg/mL) | MIC [19]: 1.45 µM (≈ 4 µg/mL) | MIC [20]: 11.6 µM (≈ 32 µg/mL) | MIC (Candida albicans C627): 11.6 µM (≈ 32 µg/mL) | MIC [21]: 23.1 µM (≈ 64 µg/mL) | MIC [22]: 23.1 µM (≈ 64 µg/mL) | MIC (Escherichia coli DC2): 0.723 µM (≈ 2 µg/mL) | MIC [23]: 1.45 µM (≈ 4 µg/mL) | MIC [24]: 1.45 µM (≈ 4 µg/mL) | MIC [25]: 5.79 µM (≈ 16 µg/mL)
